Measured values taken from patent US10111854B2, “Synthesis and use of amine-containing flavonoids as potent anti-leishmanial agents” (The Hong Kong Polytechnic University, priority 2014, dated 2018).
Counter-ions that a name gives are not always drawn. Each block holds one molecule with its values, some of them ahead of it.

Tests used:
[1] = test system: L. amazonensis LV78 promastigotes; assay: Anti-promastigote activity (MTS assay), L. amazonensis LV78; format: cell-based; settings: 72 hours
Outline: (§1)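 Promastigotes (1×10^5 per well) in Schneider's medium pH 6.9 with 10% FBS, exposed to serial compound concentrations for 72 h at 27 °C. Viability by MTS/PMS reduction over 4 h, OD 490 nm; IC50 derived.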

[2] = test system: L. major FV1 promastigotes; assay: Anti-promastigote activity (MTS assay), L. major FV1; format: cell-based; settings: 72 hours
Outline: as §1

[3] = test system: L. donovani HU3 promastigotes; assay: Anti-promastigote activity (MTS assay), L. donovani HU3; format: cell-based; settings: 72 hours
Outline: as §1

[4] = test system: L. donovani Ld39 promastigotes; assay: Anti-promastigote activity (MTS assay), L. donovani Ld39; format: cell-based; settings: 72 hours
Outline: as §1

mouse fibroblast (L929) = assay: Cytotoxicity, L929 fibroblasts; format: cell-based; settings: mouse fibroblast L929
Protocol: (§2) IC50 values of known antileishmanials and the amine-containing flavonoid monomers of the present invention to promastigotes (L. amazonensis LV78, L major FV1, L. donovani HU3, L. donovani 39), macrophages (Raw 264.7 and PEM) and mouse fibroblast (L929) were determined. The anti-promastigotes activities and cytotoxicity of the amine-containing flavonoid monomers of the invention are shown in Table 1.

[5] = test system: L. amazonensis LV78 amastigotes; assay: Anti-amastigote activity in infected PEM, L. amazonensis LV78; format: cell-based; settings: for IC50: infected PEM, 3 days, Giemsa
Outline: (§3)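 Macrophages elicited from mouse peritoneum were allowed to adhere overnight, then infected with late-log promastigotes at a 20:1 ratio at 37 °C. After removal of non-internalized parasites, cells were incubated with compound for 3 days. Amastigote burden was scored microscopically after Giemsa staining.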

[6] = test system: L. donovani HU3 amastigotes; assay: Anti-amastigote activity in infected PEM, L. donovani HU3; format: cell-based; settings: infected PEM, 3 days, Giemsa; SSG-sensitive
Outline: as §3

[7] = Cytotoxicity, RAW264.7 macrophages; format: cell-based; settings: mouse, RAW264.7 macrophage cells; murine macrophages RAW264.7
Protocol: Promastigotes of visceral L. donovani Ld39 and LdHU3, and cutaneous L. amazonensis LV78, L. braziliensis UA847 and L. major FV1 were employed in the study. All strains were cultured in Schneider's Drosophila Medium (Invitrogen), pH 6.9 supplemented with 10% (v/v) heat inactivated fetal bovine serum (Hyclone) with 4 mM glutamine (Sigma) and 25 μg/mL gentamicin solution (Invitrogen) at 27° C. for 4 days. RAW264.7 cells were cultured in supplemented DMEM media with 10% heat inactivated FBS and 100 U/mL penicillin and 100 μg/mL of streptomycin. They were maintained at 37° C. in a humidified atmosphere with 5% CO2. The cells were split constantly after a confluent monolayer has been formed. The cells were harvested by a cell scraper.
as §2

[8] = Cytotoxicity, peritoneal elicited macrophages (PEM); format: cell-based, mouse; settings: mouse, peritoneal elicited macrophages (PEM), peritoneal elicited macrophages; read-out: Cytotoxicity IC50, PEM
[9] = test system: L. braziliensis UA847 amastigotes; assay: Anti-amastigote activity in infected PEM, L. braziliensis UA847; format: cell-based; settings: Leishmania braziliensis, 72 h, 3 days, Giemsa, read-out: Anti-amastigote activity IC50, L. baziliensis UA847
Protocol: Mouse peritoneal elicited macrophages (PEM) were obtained as previously described (2). A round cover slip (12 mm in diameter) was placed into each well of 24-well culture plate. Mouse PEM were resuspended in supplemented DMEM media containing 10% heat inactivated FBS (v/v), 100 U/mL penicillin and 100 μg/mL streptomycin and seeded into each well at a cell density of 1×10^5 cells per 500 μL. Macrophages were allowed to attach overnight. Non-adherent cells were removed by gentle washing with un-supplemented DMEM media twice. Adherent macrophages were infected with late-log promastigotes at a parasite-to-macrophage ratio of 20:1 overnight at 37° C. with 5% CO2. Non-internalized promastigotes were removed by washing twice with un-supplemented DMEM media. Infected macrophages were further incubated in 500 μL of supplemented DMEM media in the presence or absence of FM for 72 hours at 37° C. After incubation, cover slips were stained with Giemsa and the percentage of macrophages infected and number of amastigotes per 100 macrophages was enumerated.
PEM cells were infected with late-log promastigotes (L. amazonensis LV78, L. braziliensis UA847, L. donovani HU3, L. donovani 39) for 24 hr at 37° C. Infected macrophages were then treated with various antileishmanials and incubated for 3 days at 37° C. After 3 days, the cover slips were stained with Giemsa. The number of amastigotes per 100 macrophages were determined and used to calculate IC50 values.

[10] = test system: L. donovani Ld39 amastigotes (SSG-resistant); assay: Anti-amastigote activity in infected PEM, L. donovani Ld39; format: cell-based
Outline: as §3

RAW264.7 cells = assay: Reactive oxygen species (ROS) level, DCFDA, RAW264.7; format: cell-based, murine
Protocol: (§4) 50,000 RAW264.7 were seeded in each well of black 96-well plates overnight. Next day, RAW264.7 cells were pre-loaded with 10 μM dichlorofluorescein diacetate (DCFDA) (Abcam) for 1 hr at 37° C. with 5% CO2. A control of non-DCFDA stained cells was also included. The DCFDA-contained supplemented DMEM media was removed. The cells were re-suspended with 10 μM or 30 μM of respective tested compounds and positive control, tert-butyl hydroperoxide. In Leishmania, 1×10^7 promastigotes were also pre-loaded with 10 μM DCFDA at 27° C. for 1 hr. After removing the DCFDA-contained media, the promastigotes were seeded into black 96-well plate and incubated with 30 μM of respective compounds or positive control. The ROS level was determined at different periods of time including 2, 4, 6, 8, 20, 46 and 72 hr using microplate reader (excitation: 485 nm and emission: […]).
(§5) The ROS levels in both macrophage RAW264.7 and L. amazonensis promastigotes was measured by dichlorofluorescein diacetate (DCFDA) dye which is permeable to the cells. With oxidative stress, DCFDA would be oxidized to fluorescent DCF which is an indicator of intracellular ROS level. RAW cells or L. amazonensis promastigotes were pre-loaded with 10 μM of DCFDA for 1 hr, washed and exposed to 39, FM09, pentamidine and amphotericin B for different period of time (2, 4, 6, 8, 20, 46 and 72 hr). The fluorescence level was measured at the 520 nm using 485 nm as an excitation wavelength. 0.1% DMSO or 0.3% DMSO was used as a solvent control. The fluorescent value has been subtracted from non-DCFDA stained cells. The values were presented as mean±standard error of mean.

[11] = test system: L. amazonensis LV78 promastigotes; assay: Reactive oxygen species (ROS) level, DCFDA, promastigotes; format: cell-based; settings: 30 μM
Protocol: as §4, §5

[12] = test system: peritoneal elicited macrophages (PEM); assay: Cytotoxicity, peritoneal elicited macrophages (PEM); format: cell-based, mouse

IC50 [1]: 0.7 µM
IC50 [2]: 1.2 ± 0.3 µM
IC50 [3]: 0.2 ± 0.1 µM
IC50 [5]: 0.4 µM
IC50 [6]: 1.8 µM
Structure (SMILES): O=c1cc(-c2ccc(OCCOCCN(Cc3ccccn3)Cc3ccccn3)cc2)oc2ccccc12 [FM09.HCl]
IC50 [4]: 0.5 ± 0.1 µM
IC50 (mouse fibroblast (L929)): 20.2 ± 8.4 µM

IC50 ([1]; Leishmania amazonensis): 15.7 ± 5.2 µM
IC50 ([2]; Leishmania major): 17.8 ± 2.2 µM
IC50 ([5]; Leishmania amazonensis, 72 h): 15.7 ± 5.2 µM
IC50 [9]: 1.1 ± 0.1 µM
Structure (SMILES): N=C(N)c1ccc(OCCCCCOc2ccc(C(=N)N)cc2)cc1 [Pentamidine]
IC50 ([4]; Leishmania donovani): 5.3 ± 0.9 µM
IC50 [7]: 30 ± 5 µM
IC50 [8]: 30.4 ± 11 µM
Selective index (a)/(b) ([5]; IC50 RAW264.7 over IC50 L. amazonensis LV78 amastigotes): 1.9
Selective index (a)/(c) ([10]; IC50 RAW264.7 over IC50 L. donovani Ld39 amastigotes): <1
IC50 ([10]; Leishmania donovani, 72 h, infected PEM, 3 days, Giemsa, SSG-resistant): > 30 µM
RAW264.7 ROS Level, Relative fold (RF) (RAW264.7 cells; 10 μM, 2 hr): 0.9 fold
RAW264.7 ROS Level, Relative fold (RF) (RAW264.7 cells; 10 μM, 4 hr): 0.9 fold
RAW264.7 ROS Level, Relative fold (RF) (RAW264.7 cells; 10 μM, 6 hr): 0.9 fold
RAW264.7 ROS Level, Relative fold (RF) (RAW264.7 cells; 10 μM, 8 hr): 0.8 fold
RAW264.7 ROS Level, Relative fold (RF) (RAW264.7 cells; 10 μM, 20 hr): 0.8 fold
ROS induction in macrophages (RAW264.7 cells; 10 μM, RAW264.7): No ROS induction
RAW264.7 ROS Level, Relative fold (RF) (RAW264.7 cells; 30 μM, 2 hr): 1.1 fold
RAW264.7 ROS Level, Relative fold (RF) (RAW264.7 cells; 30 μM, 4 hr): 1.2 fold
RAW264.7 ROS Level, Relative fold (RF) (RAW264.7 cells; 30 μM, 6 hr): 1.1 fold
RAW264.7 ROS Level, Relative fold (RF) (RAW264.7 cells; 30 μM, 20 hr): 0.9 fold
RAW264.7 ROS Level, Relative fold (RF) (RAW264.7 cells; 30 μM, 46 hr): 0.9 fold
L. amazon LV78 promastigote ROS Level, Relative fold (RF) ([11]; 2 hr): 1.3 fold
L. amazon LV78 promastigote ROS Level, Relative fold (RF) ([11]; 4 hr): 1.4 fold
L. amazon LV78 promastigote ROS Level, Relative fold (RF) ([11]; 6 hr): 1.5 fold
L. amazon LV78 promastigote ROS Level, Relative fold (RF) ([11]; 20 hr): 1.8 fold
L. amazon LV78 promastigote ROS Level, Relative fold (RF) ([11]; 46 hr): about 2.6 fold
L. amazon LV78 promastigote ROS Level, Relative fold (RF) ([11]; 46 hr, listed as pentamidine): 2.6 fold
L. amazon LV78 promastigote ROS Level, Relative fold (RF) ([11]; 72 hr): ~3.4 fold

IC50 [1]: 12.6 ± 0.9 µM
IC50 [2]: 6.7 ± 1.9 µM
IC50 [5]: > 9 µM
Structure (SMILES): O=c1cc(-c2ccc(OCCN3CCN(Cc4ccncc4)CC3)cc2)oc2ccccc12 [FM01.HCl]
IC50 [4]: 1.3 ± 0.3 µM
IC50 (mouse fibroblast (L929)): 33.7 µM
IC50 [12]: 55.9 µM
